Calls of active or inactive are those of the source. The rule behind the calls is not given here.

The test system of assay [1] is Rattus norvegicus. Briefly: Hypouricemic activity in overnight-fasted Sprague-Dawley rat model of Potassium oxonate-induced acute hyperuricemia assessed as decrease in serum uric acid at 10 mg/kg, po administered after potassium oxonate treatment and measured up to 5 hrs relative to control. The format is functional, organism-based.
In assay [2] the target is T1, Xanthine dehydrogenase/oxidase (Homo sapiens, UniProt P47989). Briefly: Mixed-type inhibition of xanthine oxidase (unknown origin) assessed as Inhibitor dissociation constant using xanthine as substrate incubated for 15 mins followed by substrate addition by UV spectrophotometric analysis. The following applies: read-out: Kis.
T1 sequence (P47989 whole entry): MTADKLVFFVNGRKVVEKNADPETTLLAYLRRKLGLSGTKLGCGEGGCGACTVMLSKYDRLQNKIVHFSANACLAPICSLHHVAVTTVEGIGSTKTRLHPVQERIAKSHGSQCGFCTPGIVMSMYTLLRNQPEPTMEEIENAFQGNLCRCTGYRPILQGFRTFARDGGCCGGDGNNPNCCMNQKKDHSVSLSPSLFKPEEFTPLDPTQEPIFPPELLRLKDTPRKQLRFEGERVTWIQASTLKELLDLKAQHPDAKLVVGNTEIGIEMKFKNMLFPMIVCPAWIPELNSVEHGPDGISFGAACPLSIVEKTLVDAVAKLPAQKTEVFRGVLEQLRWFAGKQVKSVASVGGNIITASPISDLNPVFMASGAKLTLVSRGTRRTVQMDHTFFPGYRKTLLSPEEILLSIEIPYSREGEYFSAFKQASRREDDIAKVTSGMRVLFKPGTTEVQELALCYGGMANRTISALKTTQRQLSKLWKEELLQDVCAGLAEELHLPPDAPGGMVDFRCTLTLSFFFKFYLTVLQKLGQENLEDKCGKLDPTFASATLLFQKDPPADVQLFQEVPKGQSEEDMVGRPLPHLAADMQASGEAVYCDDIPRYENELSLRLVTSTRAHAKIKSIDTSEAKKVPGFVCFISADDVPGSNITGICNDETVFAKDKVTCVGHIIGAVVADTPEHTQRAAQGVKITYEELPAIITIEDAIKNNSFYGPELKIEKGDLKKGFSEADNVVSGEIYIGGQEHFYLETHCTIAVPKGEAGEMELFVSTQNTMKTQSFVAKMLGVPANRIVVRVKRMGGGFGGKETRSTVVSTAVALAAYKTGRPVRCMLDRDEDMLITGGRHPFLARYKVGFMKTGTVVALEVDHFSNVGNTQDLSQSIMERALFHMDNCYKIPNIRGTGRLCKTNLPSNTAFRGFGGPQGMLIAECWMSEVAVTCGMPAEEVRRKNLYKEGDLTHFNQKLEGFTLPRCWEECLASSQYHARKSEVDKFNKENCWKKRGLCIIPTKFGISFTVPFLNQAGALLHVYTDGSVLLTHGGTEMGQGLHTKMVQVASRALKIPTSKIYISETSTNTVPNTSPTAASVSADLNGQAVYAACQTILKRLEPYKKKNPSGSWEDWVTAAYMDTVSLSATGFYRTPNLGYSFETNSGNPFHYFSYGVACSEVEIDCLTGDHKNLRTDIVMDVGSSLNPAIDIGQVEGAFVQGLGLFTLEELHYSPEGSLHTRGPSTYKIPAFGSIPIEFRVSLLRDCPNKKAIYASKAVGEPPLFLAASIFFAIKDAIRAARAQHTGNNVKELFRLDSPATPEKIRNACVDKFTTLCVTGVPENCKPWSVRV
Assay [3] addresses T1, Xanthine dehydrogenase/oxidase.
Description: Inhibition of xanthine oxidase (unknown origin) using xanthine as substrate preincubated for 15 mins followed by substrate addition by UV spectrophotometric analysis

On to `CC(C)Oc1ccc(-c2ncc3c(=O)[nH][nH]c3n2)cc1C#N`, for which the outcome in assay [1] was Active. In the case of `CC(C)Oc1ccc(-c2nccc(C(=O)O)n2)cc1C#N`, in assay [1], the result was Active. What is called IC50 is the concentration that gives 50% inhibition. For `Cc1nc(-c2ccc(OCC(C)C)c(C#N)c2)sc1C(=O)O` [FEBUXOSTAT], the Ki in assay [2] was found to be 0.9 nM. The same compound returned a concentration for half-maximal inhibition (IC50) in assay [3] of 28 nM.

Source of the values: ChEMBL document CHEMBL5154687, “Intramolecular hydrogen bond interruption and scaffold hopping of TMC-5 led to 2-(4-alkoxy-3-cyanophenyl)pyrimidine-4/5-carboxylic acids and 6-(4-alkoxy-3-cyanophenyl)-1,2-dihydro-3H-pyrazolo[3,4-d]pyrimidin-3-ones as potent pyrimidine-based xanthine oxidase inhibitors” (Eur J Med Chem, 2022).
